Results as given in patent US20240156805A1, “COMPOUND FOR INHIBITING NONSENSE-MEDIATED MRNA DECAY” (RIBOTECH CO., LTD., priority 2021, published 2024).

Tests used:
UPF1 = assay: Effect on phosphorylation of UPF1, western blotting; type: cell-based; settings: 5 μM for 12 hours, FIG. 5
Protocol: Phosphorylation of UPFI was known to be one of the most important factors in NMD. In Example 3.1, the effect of the three types of compounds of the present invention on phosphorylation of UPFI was examined. The cells were treated with each compound at 5 μM for 12 hours, and then total proteins were purified. Then, western blotting was performed using each antibody capable of recognizing Upfl or Upfl phosphorylated at a specific site.

[1] = system: HeLa cell line constitutively expressing the NMD-target mRNA (RLuc-beta-globin PTC); assay: NMD reporter HeLa cell lines (NMD20, NMD4, NMD5), RLuc/FLuc dual luciferase assay; type: cell-based; settings: 5 μM for 12 hours, FIG. 4
Protocol: In Example 1, a beta-globin normal gene or the gene including a premature termination codon (PTC) found in genetic diseases was inserted into the downstream of a chemiluminescence gene, Renilla luciferase (RLuc). Normal gene-inserted mRNA was not targeted by NMD, whereas when a gene having PTC was inserted, the mRNA became a NMD target, and as a result, mRNA was quickly broken down and the expression level of RLuc was reduced. […]
First, each of the prepared cell lines was treated with caffeine, which was known as a non-specific NMD inhibitor, to confirm the degree of RLuc activity to FLuc activity. […] Then, the expression levels of RLuc and FLuc proteins were measured by dual luciferase assay.
Additionally, it was attempted to determine whether the prepared HeLa cell line was suitable for performing high-throughput screening (HTS). Experiments were performed by optimizing the conditions such as the number of cells, the amounts of used reagent and buffer, and the like in a 384-well format to be suitable for HTS (FIG. 3), and NMD efficiency was measured using Wortmannin, which was a non-specific NMD inhibitor, as a control substance. […]
The NMD inhibitory effect of Compounds 1 to 3 was confirmed using the HeLa cell line prepared in Example 1. […] Then, the amounts of RNA and protein were quantified respectively through real-time PCR and dual luciferase assay methods. […]

[2] = system: β-6bs mRNA (reporter mRNA); assay: Tethering of MS2-Upf1, MS2-Upf2, MS2-Upf3 to 3' UTR of reporter mRNA in HeLa cell line, real-time PCR; type: cell-based; settings: 5 μM for 6 hours or 12 hours; FIGS. 8 and 9
Protocol: An NMD-based search system capable of artificially reducing the amount of reporter mRNA was constructed, after artificially tethering proteins Upf1, Upf2, and Upf3X acting in each step of NMD to 3′ UTR of reporter mRNA (FIG. 7). Using this method, it was attempted to verify which step of NMD the three types of compounds acted on.
After treating the cell line with each compound at 5 μM for 6 hours or 12 hours, a cell extract was obtained. Thereafter, the relative amount of reporter mRNA was measured through real-time PCR.

dystrophin protein = assay: Dystrophin protein in DMD patient-derived cell line, Western blotting; type: cell-based, human; settings: 5 μM for 12 hours, FIG. 11
UPF1 and UPF2 = biological target: T1, UPF1 and UPF2 (Homo sapiens, UniProt Q92900+Q9HAU5); assay: Effect on binding between UPF1 and UPF2, FLAG-UPF1 immunoprecipitation and western blotting; type: cell-based; settings: 5 μM for 1 hour; FLAG immunoprecipitation; FIG. 6
T1 construct: expressed in transfected cells
T1 sequence (Q92900 1-1129): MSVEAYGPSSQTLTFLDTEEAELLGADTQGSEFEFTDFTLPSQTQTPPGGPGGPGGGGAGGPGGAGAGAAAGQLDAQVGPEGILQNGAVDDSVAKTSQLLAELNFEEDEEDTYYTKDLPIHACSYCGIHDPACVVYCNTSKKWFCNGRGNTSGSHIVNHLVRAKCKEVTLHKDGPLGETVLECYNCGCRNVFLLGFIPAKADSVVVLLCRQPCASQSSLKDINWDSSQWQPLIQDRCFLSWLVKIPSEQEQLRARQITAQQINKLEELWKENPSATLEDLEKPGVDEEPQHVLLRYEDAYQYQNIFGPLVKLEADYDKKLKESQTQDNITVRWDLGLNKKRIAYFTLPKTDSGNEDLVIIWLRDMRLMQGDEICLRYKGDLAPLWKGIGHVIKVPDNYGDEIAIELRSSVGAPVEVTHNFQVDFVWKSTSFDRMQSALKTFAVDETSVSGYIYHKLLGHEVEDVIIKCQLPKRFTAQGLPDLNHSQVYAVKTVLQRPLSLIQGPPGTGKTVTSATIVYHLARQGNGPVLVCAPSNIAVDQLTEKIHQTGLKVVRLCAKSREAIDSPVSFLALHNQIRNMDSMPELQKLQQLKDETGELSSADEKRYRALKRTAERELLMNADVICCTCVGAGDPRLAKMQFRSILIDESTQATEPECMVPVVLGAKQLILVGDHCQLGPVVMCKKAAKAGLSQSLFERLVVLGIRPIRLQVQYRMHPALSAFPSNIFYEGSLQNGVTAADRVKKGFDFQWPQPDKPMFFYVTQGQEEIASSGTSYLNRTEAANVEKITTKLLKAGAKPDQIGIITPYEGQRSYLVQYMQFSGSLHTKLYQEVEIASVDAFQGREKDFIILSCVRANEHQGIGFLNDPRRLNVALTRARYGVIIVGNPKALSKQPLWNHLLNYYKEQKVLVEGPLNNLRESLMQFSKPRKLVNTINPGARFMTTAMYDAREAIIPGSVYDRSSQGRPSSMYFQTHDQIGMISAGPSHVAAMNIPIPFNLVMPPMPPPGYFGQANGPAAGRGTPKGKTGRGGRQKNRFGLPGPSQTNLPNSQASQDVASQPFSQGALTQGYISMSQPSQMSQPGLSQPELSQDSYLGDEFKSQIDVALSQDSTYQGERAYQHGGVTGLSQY
T1 sequence (Q9HAU5 1-1272): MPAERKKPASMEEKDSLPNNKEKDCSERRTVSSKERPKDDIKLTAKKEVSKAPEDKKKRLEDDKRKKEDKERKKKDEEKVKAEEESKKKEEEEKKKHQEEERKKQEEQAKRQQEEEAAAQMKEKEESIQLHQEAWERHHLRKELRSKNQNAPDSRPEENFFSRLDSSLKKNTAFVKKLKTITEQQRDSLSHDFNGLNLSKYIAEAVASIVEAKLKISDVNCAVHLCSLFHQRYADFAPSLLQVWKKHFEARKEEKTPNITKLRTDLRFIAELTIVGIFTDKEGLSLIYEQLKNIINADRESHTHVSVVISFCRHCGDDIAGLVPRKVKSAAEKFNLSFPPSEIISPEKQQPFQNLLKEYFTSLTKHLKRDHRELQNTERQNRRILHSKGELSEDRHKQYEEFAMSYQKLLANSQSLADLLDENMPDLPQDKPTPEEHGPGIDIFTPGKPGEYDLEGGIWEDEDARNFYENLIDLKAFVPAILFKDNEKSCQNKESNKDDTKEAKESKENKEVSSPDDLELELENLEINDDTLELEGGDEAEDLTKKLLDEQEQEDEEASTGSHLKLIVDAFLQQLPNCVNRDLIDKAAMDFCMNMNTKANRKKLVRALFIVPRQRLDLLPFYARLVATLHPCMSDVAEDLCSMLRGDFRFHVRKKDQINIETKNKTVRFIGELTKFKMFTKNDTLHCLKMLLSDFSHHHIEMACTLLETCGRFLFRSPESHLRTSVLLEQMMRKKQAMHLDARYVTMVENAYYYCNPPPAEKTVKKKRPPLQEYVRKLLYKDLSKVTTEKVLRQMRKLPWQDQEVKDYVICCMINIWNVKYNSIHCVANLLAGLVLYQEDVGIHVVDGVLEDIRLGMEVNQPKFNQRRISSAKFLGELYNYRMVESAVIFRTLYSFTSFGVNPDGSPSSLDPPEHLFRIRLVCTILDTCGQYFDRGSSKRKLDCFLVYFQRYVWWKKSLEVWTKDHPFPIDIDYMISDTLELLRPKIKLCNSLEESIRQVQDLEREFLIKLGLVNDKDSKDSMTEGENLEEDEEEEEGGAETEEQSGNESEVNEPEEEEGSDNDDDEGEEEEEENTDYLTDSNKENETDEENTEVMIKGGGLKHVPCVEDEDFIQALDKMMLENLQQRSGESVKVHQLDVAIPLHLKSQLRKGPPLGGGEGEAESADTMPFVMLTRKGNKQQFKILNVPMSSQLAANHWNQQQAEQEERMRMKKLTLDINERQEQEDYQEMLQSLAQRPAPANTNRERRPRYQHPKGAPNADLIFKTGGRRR
Protocol: In the cell line, DNA expressing FLAG-UPF1 was transiently overexpressed.
After treating the cell line with each compound at 5 μM for 1 hour, a cell extract was obtained. Immunoprecipitation was performed on the cell extract obtained using a FLAG antibody.
Proteins before and after immunoprecipitation were analyzed by western blotting.

[3] = system: HeLa cell line constitutively expressing the NMD-target mRNA (RLuc-beta-globin PTC); assay: NMD reporter HeLa cell line, RLuc mRNA by real-time PCR; type: cell-based; settings: 5 μM for 12 hours, FIG. 4
Text: In Example 1, a beta-globin normal gene or the gene including a premature termination codon (PTC) found in genetic diseases was inserted into the downstream of a chemiluminescence gene, Renilla luciferase (RLuc). Normal gene-inserted mRNA was not targeted by NMD, whereas when a gene having PTC was inserted, the mRNA became a NMD target, and as a result, mRNA was quickly broken down and the expression level of RLuc was reduced.
Accordingly, a HeLa cell line constitutively expressing the NMD-target mRNA was prepared, and simultaneously, the cell line was designed to constitutively express a firefly luciferase (FLuc) gene, which was not a target of NMD, and a total of three cell lines NMD20, NMD4, and NMD5 with the same composition were obtained. In order to confirm whether the HeLa cell line prepared above was suitable for measuring NMD efficiency, the following two experiments were performed.
The NMD inhibitory effect of Compounds 1 to 3 was confirmed using the HeLa cell line prepared in Example 1. After treating the cells with Compounds 1 to 3 at 5 μM for 12 hours, respectively, total RNA and protein were purified from the cells, respectively. Then, the amounts of RNA and protein were quantified respectively through real-time PCR and dual luciferase assay methods. The results were illustrated in FIG. 4.

Structure (SMILES)	phosphorylation of UPF1 (UPF1)	protein translation of RLuc [1]	NMD step targeted (relative amount of reporter mRNA) [2]	amount of dystrophin protein expressed in cells (dystrophin protein)	UPF1-UPF2 binding (UPF1 and UPF2)	amount of RLuc mRNA [3]
COc1ncc(-c2ccc3nccc(-c4ccnnc4)c3c2)cc1NS(=O)(=O)c1ccc(F)cc1F [Compound 1, 2,4-Difluoro-N-{2-(methyloxy)-5-[4-(4-pyridazinyl)-6-quinolinyl]-3-pyridinyl} benzenesulfonamide]	did not significantly affect	increased	targeted a UPF1-UPF2 step	increased	significantly inhibited	
Cn1c(=O)n(-c2ccc(C(C)(C)C#N)cc2)c2c3cc(-c4cnc5ccccc5c4)ccc3ncc21 [Compound 2, 2-methyl-2-{4-[3-methyl-2-oxo-8-(quinolin-3-yl)-2,3-dihydro-1H-imidazo[4,5-c]quinolin-1-yl]phenyl} propanenitrile]	significantly inhibited		did not target the UPF1-UPF2 and UPF2-UPF3 steps		did not significantly affect	significantly increased
COc1cc2ncnc(-n3nc(-c4ccccn4)nc3N)c2cc1OC [Compound 3, 1-(6,7-Dimethoxy-4-quinazolinyl)-3-(2-pyridinyl)-1H-1,2,4-Triazol-5-amine]	did not significantly affect		did not target the UPF1-UPF2 and UPF2-UPF3 steps		did not significantly affect	significantly increased
